In data set [1] the target is Cholesterol oxidase I from Brevibacterium sterolicum (Brevibacterium sterolicum, UniProt P22637). Conditions: read-out: KM (affinity for cholesterol); cited from earlier work.
Substrate in data set [2]: CC(C)CCC[C@@H](C)[C@H]1CC[C@H]2[C@@H]3CC=C4C[C@@H](O)CC[C@]4(C)[C@H]3CC[C@]12C
Put plainly: KM value for cholesterol of the cholesterol oxidase according to the invention. It counts as biochemical, Brevibacterium sterolicum. The settings on record: other: in 0.5 mol/l potassium phosphate buffer pH 7.5 at 25° C. The protocol:
This cholesterol oxidase has a molecular weight of 60 kD, an isoelectric point of ca. 5.5 (each measured in the Phast System, Pharmacia LKB) and a KM value for cholesterol of 1×10^-4 mol/l (in 0.5 mol/l potassium phosphate buffer pH 7.5 at 25° C.) and is active in a pH range of 5.5 to 8.0.
3 ml potassium phosphate buffer (0.5 mol/l, pH 7.5) containing 0.4% Thesit® (Boehringer Mannheim GmbH, Catalogue No. 006190),
0.1 ml cholesterol solution (0.4% cholesterol, 10% l-propanol, 10% Thesit®),
0.02 ml H2 O2 (0.49 mol/l in redistilled water), it is mixed, after addition of 0.02 ml catalase (from bovine liver, 20 mg protein/ml, specific activity ca. 65,000 U/mg, Boehringer Mannheim GmbH, Catalogue No. 0156744 diluted immediately to 0.075-0.15 U/ml before measurement with ice-cold potassium phosphate buffer, containing 0.4% Thesit) it is again mixed, the solution is brought to a temperature of 25° C. and subsequently the reaction is started by addition of 0.05 ml sample solution. After careful mixing the change in absorbance at 240 nm is monitored and the activity of cholesterol oxidase is determined from the linear region of the absorbance curve: [formula] in which .di-elect cons. 240=15.5 mmol^-1 ×1×cm^-1.

Results on two molecules are retold here after patent US5916759A, “Cholesterol oxidase from Brevibacterium sterolicum” (Boehringer Mannheim GmbH, priority 1993, dated 1999).

Cholesterol oxidase I from Brevibacterium sterolicum, sequence (P22637 46-552): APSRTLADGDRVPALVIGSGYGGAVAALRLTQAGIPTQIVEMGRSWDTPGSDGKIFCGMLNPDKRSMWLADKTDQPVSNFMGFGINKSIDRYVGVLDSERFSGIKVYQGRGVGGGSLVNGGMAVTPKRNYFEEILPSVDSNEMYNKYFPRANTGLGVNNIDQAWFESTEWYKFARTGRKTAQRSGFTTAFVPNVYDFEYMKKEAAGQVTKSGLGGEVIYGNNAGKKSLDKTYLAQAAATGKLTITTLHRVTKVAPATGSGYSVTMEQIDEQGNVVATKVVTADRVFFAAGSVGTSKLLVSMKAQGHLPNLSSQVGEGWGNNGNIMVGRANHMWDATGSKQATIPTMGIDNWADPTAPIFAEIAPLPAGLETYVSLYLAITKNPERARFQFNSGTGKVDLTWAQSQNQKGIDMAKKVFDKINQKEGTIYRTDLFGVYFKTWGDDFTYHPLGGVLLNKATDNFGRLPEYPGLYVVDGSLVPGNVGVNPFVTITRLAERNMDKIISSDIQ

A word on the Km: it is the concentration of substrate that gives half-maximal velocity. On to `CC(C)CCC[C@@H](C)[C@H]1CC[C@H]2[C@@H]3CC=C4C[C@@H](O)CC[C@]4(C)[C@H]3CC[C@]12C` [cholesterol, 5-cholesten-3-β-ol], for which the Km in data set [1] was 1100 µM.

B1: cholesterol oxidase from Brevibacterium sterolicum, SEQ ID NO 2 (Brevibacterium sterolicum) (protein)
chain: STGPVAPLPTPPNFPNDIALFQQAYQNWSKEIMLDATWVCSPKTPQDVVRLANWAHEHDYKIRPRGAMHGWTPLTVEKGANVEKVILADTMTHLNGITVNTGGPVATVTAGAGASIEAIVTELQKHDLGWANLPAPGVLSIGGALAVNAHGAALPAVGQTTLPGHTYGSLSNLVTELTAVVWNGTTYALETYQRNDPRITPLLTNLGRCFLTSVTMQAGPNFRQRCQSYTDIPWRELFAPKGADGRTFEKFVAESGGAEAIWYPFTEKPWMKVWTVSPTKPDSSNEVGSLGSAGSLVGKPPQAREVSGPYNYIFSDNLPEPITDMIGAINAGNPGIAPLFGPAMYEITKLGLAATNANDIWGWSKDVQFYIKATTLRLTEGGGAVVTSRANIATVINDFTEWFHERIEFYRAKGEFPLNGPVEIRCCGLDQAADVKVPSVGPPTISATRPRPDHPDWDVAIWLNVLGVPGTPGMFEFYREMEQWMRSHYNNDDATFRPEWSKGWAFGPDPYTDNDIVTNKMRATYIEGVPTTENWDTARARYNQIDPHRVFTNGFMDKLLP
Turning to B1, the Km in data set [2] was 100 µM.
